Experimental findings from PMC9599461, “Stereoselectivity in the Membrane Transport of Phenylethylamine Derivatives by Human Monoamine Transporters and Organic Cation Transporters 1, 2, and 3” (Biomolecules, 2022) are described below.

Read-outs that look alike come from different tables or passages of the source.

Data set [1] concerns the target T1, SERT (Homo sapiens, UniProt P31645). Description: in vitro.
Description: (§1) All transport experiments were carried out in HEK293 cells stably overexpressing human MATs or OCTs. […] All cells were regularly cultivated in DMEM supplemented with 10% (v/v) FCS, penicillin (100 U/mL) and streptomycin (100 μg/mL)and kept in culture for no longer than 30 passages.
(§2) For the uptake experiments, 300,000 cells were plated in poly-D-lysine precoated 24-well plates 48 h ahead of the transport experiment. On the day of experiment, cells were initially washed once with 37 °C pre-warmed HBSS+ (Hanks buffered salt solution supplemented with 10 mM HEPES) and subsequently incubated with the substrates dissolved in pre-warmed HBSS+ for exactly two minutes. Incubation was stopped by adding ice-cold HBSS+ followed by two washing steps. After this, cells were lysed with 80% acetonitrile containing 10 ng/mL milnacipran as internal standard for high-performance liquid chromatography coupled to tandem mass spectrometry (HPLC-MS/MS) analysis. For every experiment, two additional wells per cell line were lysed using RIPA buffer for protein quantification. Total protein was quantified using the bicinchoninic acid assay [42]. This was later used for normalization of the uptake data.
(§3) Intracellularly accumulated test substances were quantified by HPLC-MS/MS analysis using a Shimadzu Nexera HPLC system with a SIL-30AC autosampler, a CTO-20AC column oven, a LC-30AD pump, and a CBM-20A controller (Shimadzu, Kyoto, Japan). […] CBH HPLC column (100 × 3 mm inner dimension with 5 μM particle size; Sigma-Aldrich, Darmstadt, Germany) with a corresponding 10 × 3 mm guard column. Reversed phased chromatography was carried out using an ammonium acetate (NH4Ac) buffered aqueous mobile phase with isopropyl alcohol (IPA) as organic solvent. […] The order of elution of the enantiomers was obtained from available reference literature [43] or by applying enantiopure reference compounds to the chiral HPLC.
(§4) Detection was performed with an API 4000 tandem mass spectrometer (AB SCIEX, Darmstadt, Germany) operating in multiple-reaction-monitoring mode. Quantification was performed using the Analyst 1.6.2 software (AB SCIEX, Darmstadt, Germany) and quantified by comparison to standard curves with known concentrations.
(§5) All uptake data were normalized to protein content to account for variation in the number of seeded sells. Transporter-mediated net uptake was calculated by subtracting uptake into empty vector-transfected control cells from uptake into transporter-transfected cells. […] Vmax refers to the maximum transport velocity and Km is defined as the substance concentration required to reach half of vmax. The intrinsic clearance Clint was calculated as the quotient of vmax over Km.
Data set [2] deals with OCT2 wild-type versus A270S variant. The data set can be described thus: in vitro. The note with it: human, Transporter selectivity, OCT2 wild-type versus A270S, 100 μM racemic substance, two minutes.
The target of another data set is NET (Homo sapiens, UniProt P23975). The data set can be described thus: Stereoselective uptake into NET-overexpressing HEK293 cells.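 For all read-outs here: intracellular enantiomers quantified in cell lysates by chiral HPLC-MS/MS after a 2 min substrate incubation, with uptake normalized to total cellular protein.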 Particulars: for Clint ± SEM: quotient of vmax over Km; for selectivity ratio at 2 min: human.
For a further data set, the target named is DAT (Homo sapiens, UniProt Q01959). The data set can be described thus: Stereoselective uptake into DAT-overexpressing HEK293 cells.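 For all read-outs here: intracellular accumulation measured by chiral HPLC-MS/MS in stably transfected HEK293 cells, normalized to total protein.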 The note with it: for Saturable net uptake: result in words.
Data set [3] deals with T1, SERT. Description: Stereoselective uptake into SERT-overexpressing HEK293 cells.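 For all read-outs here: uptake into HEK293 cells stably expressing human SERT over 2 min, enantiomers measured in cell lysate by chiral HPLC-MS/MS, normalized to total protein.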 Particulars: for Clint ± SEM: quotient of vmax over Km.
Description: as §1, §2, §3, §4, §5
The next data set has as its target T2, OCT1 (Homo sapiens, UniProt O15245).
T2 sequence (O15245 1-554): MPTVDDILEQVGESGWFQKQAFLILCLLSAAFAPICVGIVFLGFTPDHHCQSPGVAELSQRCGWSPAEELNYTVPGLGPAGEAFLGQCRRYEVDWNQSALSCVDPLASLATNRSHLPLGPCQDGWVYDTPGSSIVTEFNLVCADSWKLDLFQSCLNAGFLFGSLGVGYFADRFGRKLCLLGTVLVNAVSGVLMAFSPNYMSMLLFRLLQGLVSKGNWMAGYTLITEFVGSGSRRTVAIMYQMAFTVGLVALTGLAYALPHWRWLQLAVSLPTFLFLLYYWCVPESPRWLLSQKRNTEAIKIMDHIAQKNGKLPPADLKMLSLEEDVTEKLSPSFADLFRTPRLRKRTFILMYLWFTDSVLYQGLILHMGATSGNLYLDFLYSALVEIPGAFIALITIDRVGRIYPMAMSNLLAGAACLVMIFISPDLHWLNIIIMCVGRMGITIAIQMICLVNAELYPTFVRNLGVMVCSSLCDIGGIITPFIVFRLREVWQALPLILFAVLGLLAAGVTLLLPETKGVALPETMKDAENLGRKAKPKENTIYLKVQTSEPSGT
Description: Stereoselective uptake into OCT1-overexpressing HEK293 cells.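 For all read-outs here: enantiomers quantified inside cells by chiral HPLC-MS/MS, uptake normalized to total protein from bicinchoninic acid assay, substrates applied in HBSS+ buffer.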 Particulars: for Clint ± SEM: quotient of vmax over Km; for selectivity ratio at 2 min: human.

In another data set the target is T3, OCT3 (Homo sapiens, UniProt O75751).
T3 sequence (O75751 1-556): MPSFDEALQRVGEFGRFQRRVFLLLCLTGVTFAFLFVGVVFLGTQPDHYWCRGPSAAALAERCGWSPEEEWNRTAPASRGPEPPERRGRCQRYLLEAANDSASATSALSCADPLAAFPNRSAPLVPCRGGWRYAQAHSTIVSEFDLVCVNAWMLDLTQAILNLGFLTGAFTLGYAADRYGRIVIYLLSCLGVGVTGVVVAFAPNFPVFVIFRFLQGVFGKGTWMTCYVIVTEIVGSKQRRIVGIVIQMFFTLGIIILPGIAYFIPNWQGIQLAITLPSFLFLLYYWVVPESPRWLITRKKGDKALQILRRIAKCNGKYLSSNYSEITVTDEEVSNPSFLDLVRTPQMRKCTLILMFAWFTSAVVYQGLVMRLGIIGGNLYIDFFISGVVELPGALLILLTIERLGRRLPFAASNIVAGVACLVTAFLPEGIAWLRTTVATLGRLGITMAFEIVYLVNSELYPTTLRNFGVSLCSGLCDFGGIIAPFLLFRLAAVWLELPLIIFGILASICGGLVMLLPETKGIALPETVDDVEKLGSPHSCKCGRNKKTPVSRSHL
The data set can be described thus: Stereoselective uptake into OCT3-overexpressing HEK293 cells.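 For all read-outs here: intracellular accumulation in HEK293 cells measured by chiral HPLC-MS/MS after a 2 min substrate exposure at 37 °C, uptake normalized to total protein (bicinchoninic acid assay).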 Particulars: for Clint ± SEM / Stereoselectivity Vmax / Stereoselectivity Km: OCT3; for Clint ± SEM: quotient of vmax over Km; for Stereoselectivity Vmax / Stereoselectivity Km: ratio between enantiomers; for Stereoselectivity Vmax: given as for (R) or for 1; for Stereoselectivity Km: given as for (R) or for 1 (first-eluting); for selectivity ratio at 2 min: human.

Data set [4] addresses T4, OCT2 (Homo sapiens, UniProt O15244).
T4 sequence (O15244 1-555 S270A): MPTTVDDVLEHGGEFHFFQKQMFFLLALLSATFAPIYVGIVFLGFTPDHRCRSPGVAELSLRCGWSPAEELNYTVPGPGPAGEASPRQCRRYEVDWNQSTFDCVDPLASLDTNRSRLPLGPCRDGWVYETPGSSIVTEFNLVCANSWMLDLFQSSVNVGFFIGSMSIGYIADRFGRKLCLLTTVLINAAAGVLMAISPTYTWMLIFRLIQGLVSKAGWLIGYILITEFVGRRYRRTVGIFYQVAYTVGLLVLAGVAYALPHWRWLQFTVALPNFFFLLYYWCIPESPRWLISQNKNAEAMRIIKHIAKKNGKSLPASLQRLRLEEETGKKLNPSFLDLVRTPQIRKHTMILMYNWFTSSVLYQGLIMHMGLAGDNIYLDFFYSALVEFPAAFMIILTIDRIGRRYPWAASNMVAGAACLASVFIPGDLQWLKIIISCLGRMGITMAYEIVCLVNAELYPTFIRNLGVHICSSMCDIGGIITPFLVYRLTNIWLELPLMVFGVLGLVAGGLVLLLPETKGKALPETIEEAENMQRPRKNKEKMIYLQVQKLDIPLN
Description: Stereoselective uptake into OCT2 (wild-type)-overexpressing HEK293 cells. The note with it: for Clint ± SEM / selectivity ratio at 2 min: OCT2; for Clint ± SEM: quotient of vmax over Km; for selectivity ratio at 2 min: human, ratio between enantiomers.

Data set [5] concerns the target T5, OCT2 (Homo sapiens, UniProt O15244, S270A).
T5 sequence (O15244 1-555 S270A): T4 sequence (O15244 1-555 S270A)
The description is as above. Particulars: OCT2, ratio between enantiomers.

Another data set deals with OCT2 A270S variant. Description: Stereoselective uptake into OCT2 A270S variant-overexpressing HEK293 cells.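 Note: uptake into HEK293 cells stably overexpressing human OCT2 variants, intracellular enantiomers quantified by chiral HPLC-MS/MS and normalized to total protein.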 The note with it: 100 μM racemic substance, two minutes.
The mark [6] stands for this setting: Stereoselectivity Vmax, OCT1, ratio between enantiomers, given as for (R) or for 1.
Setting [7] is: Stereoselectivity ClInt, given as for (R) or for 1.
[8] abbreviates: Stereoselectivity Vmax, given as for (R) or for 1.

Sequence of NET (P23975 whole entry): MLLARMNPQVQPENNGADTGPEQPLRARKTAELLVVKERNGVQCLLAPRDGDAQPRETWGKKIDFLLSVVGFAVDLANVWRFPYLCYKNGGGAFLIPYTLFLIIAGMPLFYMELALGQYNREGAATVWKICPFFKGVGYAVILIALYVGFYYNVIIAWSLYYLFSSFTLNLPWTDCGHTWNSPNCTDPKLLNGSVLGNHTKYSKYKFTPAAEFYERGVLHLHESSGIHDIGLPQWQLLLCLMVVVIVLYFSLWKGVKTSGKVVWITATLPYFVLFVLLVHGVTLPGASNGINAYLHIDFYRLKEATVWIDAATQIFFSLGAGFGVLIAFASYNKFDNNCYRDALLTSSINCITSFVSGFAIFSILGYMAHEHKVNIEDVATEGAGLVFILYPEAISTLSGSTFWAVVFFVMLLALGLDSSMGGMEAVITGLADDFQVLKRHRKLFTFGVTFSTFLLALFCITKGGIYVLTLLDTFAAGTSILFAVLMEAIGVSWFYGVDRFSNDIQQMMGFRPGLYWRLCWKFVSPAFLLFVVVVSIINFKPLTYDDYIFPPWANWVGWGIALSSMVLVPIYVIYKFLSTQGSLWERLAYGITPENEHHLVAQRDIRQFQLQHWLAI
Sequence of DAT (Q01959 whole entry): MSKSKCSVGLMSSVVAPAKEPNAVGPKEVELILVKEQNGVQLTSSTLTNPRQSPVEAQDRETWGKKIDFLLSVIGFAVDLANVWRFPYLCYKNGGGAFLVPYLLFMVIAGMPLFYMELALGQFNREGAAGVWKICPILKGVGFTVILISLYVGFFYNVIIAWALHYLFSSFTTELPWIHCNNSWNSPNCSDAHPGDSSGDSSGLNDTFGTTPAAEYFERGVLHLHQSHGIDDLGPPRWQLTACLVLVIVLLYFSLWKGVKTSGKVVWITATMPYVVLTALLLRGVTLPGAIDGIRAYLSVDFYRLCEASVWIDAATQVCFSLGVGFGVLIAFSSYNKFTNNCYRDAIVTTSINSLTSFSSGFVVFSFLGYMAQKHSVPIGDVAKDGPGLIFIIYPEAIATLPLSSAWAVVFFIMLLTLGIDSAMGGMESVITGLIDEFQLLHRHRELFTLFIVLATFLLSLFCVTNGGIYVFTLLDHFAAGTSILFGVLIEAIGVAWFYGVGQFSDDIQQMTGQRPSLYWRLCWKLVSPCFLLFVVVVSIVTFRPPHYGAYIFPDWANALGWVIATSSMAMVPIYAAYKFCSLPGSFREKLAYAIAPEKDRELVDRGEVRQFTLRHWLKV
T1 sequence (P31645 whole entry): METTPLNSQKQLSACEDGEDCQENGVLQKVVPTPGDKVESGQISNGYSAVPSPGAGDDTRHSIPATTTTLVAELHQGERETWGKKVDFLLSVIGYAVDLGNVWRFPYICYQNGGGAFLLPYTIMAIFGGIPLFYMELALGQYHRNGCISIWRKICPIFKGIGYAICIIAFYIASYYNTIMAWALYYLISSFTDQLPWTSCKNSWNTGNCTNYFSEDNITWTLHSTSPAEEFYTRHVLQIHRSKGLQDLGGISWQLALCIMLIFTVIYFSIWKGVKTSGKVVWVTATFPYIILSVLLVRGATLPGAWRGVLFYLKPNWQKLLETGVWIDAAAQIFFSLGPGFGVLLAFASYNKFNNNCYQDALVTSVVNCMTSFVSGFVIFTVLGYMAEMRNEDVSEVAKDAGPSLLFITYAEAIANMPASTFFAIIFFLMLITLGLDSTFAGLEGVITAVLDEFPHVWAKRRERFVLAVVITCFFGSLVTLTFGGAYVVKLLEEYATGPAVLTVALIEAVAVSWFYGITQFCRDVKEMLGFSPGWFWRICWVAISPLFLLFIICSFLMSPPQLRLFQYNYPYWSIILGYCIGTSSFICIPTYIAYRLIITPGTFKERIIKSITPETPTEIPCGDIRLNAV
Description for DAT: as §1, §2
Intracellularly accumulated test substances were quantified by HPLC-MS/MS analysis using a Shimadzu Nexera HPLC system with a SIL-30AC autosampler, a CTO-20AC column oven, a LC-30AD pump, and a CBM-20A controller (Shimadzu, Kyoto, Japan). Stereoselective chromatography was carried out on a [sequence] CBH HPLC column (100 × 3 mm inner dimension with 5 μM particle size; Sigma-Aldrich, Darmstadt, Germany) with a corresponding 10 × 3 mm guard column. Reversed phased chromatography was carried out using an ammonium acetate (NH4Ac) buffered aqueous mobile phase with isopropyl alcohol (IPA) as organic solvent. […] The order of elution of the enantiomers was obtained from available reference literature [43] or by applying enantiopure reference compounds to the chiral HPLC. […] Given the structural similarity of the investigated substances and the fact that separation was performed on the same column with almost identical mobile phases, we assume that this order of elution for our compound set is always the (R)- before the (S)-enantiomer.
as §4
All uptake data were normalized to protein content to account for variation in the number of seeded sells. Transporter-mediated net uptake was calculated by subtracting uptake into empty vector-transfected control cells from uptake into transporter-transfected cells. Kinetic parameters were then determined after non-linear regression following the Michaelis–Menten equation (v = vmax × [S]/(Km + [S])) using GraphPad Prism (Version 5.01 for Windows, GraphPad Software, La Jolla, CA, USA). Vmax refers to the maximum transport velocity and Km is defined as the substance concentration required to reach half of vmax. The intrinsic clearance Clint was calculated as the quotient of vmax over Km.

Take `COc1cc(C(O)CN)ccc1O` (single isomer, unassigned) [Normetanephrine-1, Normetanephrine]: at SERT [1], the selectivity ratio turned out to be 1.28. Besides, in data set [2] (given as for WT), the selectivity ratio at 2 min, 100 μM is 1.21. Moreover, the “Clint ± SEM” value was 2.71 mL × g Protein^−1 × min^−1 at NET (NET); 2.23 mL × g Protein^−1 × min^−1 at SERT [3] (SERT); 2.46 mL × g Protein^−1 × min^−1 on OCT1 (OCT1); 19.4 mL × g Protein^−1 × min^−1 at OCT3; 9.24 mL × g Protein^−1 × min^−1 on OCT2 [4]. In addition, the “Stereoselectivity Vmax” value at NET (NET, ratio between enantiomers, given as for (R) or for 1) was found to be 1.06 fold; at SERT [3] (SERT, ratio between enantiomers, given as for (S) or for 2), 1.67 fold; at OCT1 (OCT1, ratio between enantiomers, given as for (R) or for 1), 1.47 fold; at OCT3 it was 1.09 fold; on OCT2 [5] (given as for (S) or for 2) it was 2.06 fold. In addition, the “Stereoselectivity Km” value at NET (NET, ratio between enantiomers, given as for (R) or for 1 (first-eluting)) stood at 1.35 fold; at SERT [3] (SERT, ratio between enantiomers, given as for (R) or for 1 (first-eluting)), 1.08 fold; on OCT1 (OCT1, ratio between enantiomers, given as for (R) or for 1 (first-eluting)), 1.59 fold; at OCT3, 1.22 fold; at OCT2 [5] (given as for (R) or for 1 (first-eluting)), 1.32 fold. Further, the selectivity ratio at 2 min at NET is 1.28; on OCT3, 1.12. In addition, the Saturable net uptake result at DAT (DAT) is reported as “No saturable net uptake”. The “Stereoselectivity ClInt” value on OCT1 (OCT1, ratio between enantiomers, given as for (S) or for 2) came to 1.08 fold; on OCT2 [5] (given as for (R) or for 1) it was 1.56 fold.
For the compound `NCC(O)c1cccc(O)c1` (single isomer, unassigned) [Norphenylephrine-1, Norphenylephrine], the selectivity ratio on SERT [1] came to 1.53. Moreover, the selectivity ratio at 2 min, 100 μM in data set [2] (given as for WT) was 1.18. Also, the “Clint ± SEM” value on NET (NET) is 189 mL × g Protein^−1 × min^−1; on DAT (DAT, quotient of vmax over Km) it was 128 mL × g Protein^−1 × min^−1; on SERT [3] (SERT) it was 1.20 mL × g Protein^−1 × min^−1; on OCT1 (OCT1), 4.02 mL × g Protein^−1 × min^−1; at OCT3 it was 11.0 mL × g Protein^−1 × min^−1; at OCT2 [4] it was 36.4 mL × g Protein^−1 × min^−1. Moreover, the “Stereoselectivity Vmax” value on NET (NET, ratio between enantiomers, given as for (S) or for 2) was 1.25 fold; at DAT (DAT, ratio between enantiomers, given as for (S) or for 2), 1.55 fold; at SERT [3], 1.27 fold; on OCT3 it was 3.88 fold. Moreover, the selectivity ratio at 2 min was 1.21 at NET; 1.29 on DAT (human); 1.05 on OCT1 (Stereoselectivity ClInt); 1.03 at OCT1 (Stereoselectivity Km, OCT1, ratio between enantiomers, given as for (R) or for 1 (first-eluting)); 1.08 on OCT1 (setting [6]); 3.32 at OCT3. In addition, the selectivity ratio at 2 min was found to be 1.4 at OCT2 [4] (setting [7]); 1.57 at OCT2 [4] (Stereoselectivity Km, given as for (R) or for 1 (first-eluting)); 2.19 on OCT2 [4] (setting [8]). The “Stereoselectivity Km” value on DAT (DAT, ratio between enantiomers, given as for (S) or for 2 (second-eluting)) is given as 1.20 fold; on SERT [3], 1.20 fold; on OCT3, 1.17 fold.
As to `CNCC(O)c1ccc(O)c(OC)c1` (single isomer, unassigned) [Metanephrine-1, Metanephrine], at SERT [1], the selectivity ratio worked out at 1.01. In addition, the selectivity ratio at 2 min, 100 μM in [2] (given as for A270S) was determined as 1.2. For the same compound, the Saturable net uptake entry is reported as “No saturable net uptake” on NET (NET, result in words) and “No saturable net uptake” at DAT (DAT). In addition, the results for the “Stereoselectivity Km” value at SERT [3] and on OCT3 were 1.09 fold and 1.19 fold, respectively. The figures for the “Stereoselectivity Vmax” value on SERT [3] and at OCT3 were 1.08 fold and 1.19 fold, respectively. Further, the “Clint ± SEM” value on SERT [3] (SERT) is on record as 0.58 mL × g Protein^−1 × min^−1; at OCT1 (OCT1), 8.09 mL × g Protein^−1 × min^−1; at OCT3, 25.9 mL × g Protein^−1 × min^−1; on OCT2 [4], 20.6 mL × g Protein^−1 × min^−1. Further, the “Vmax ± SEM” value at OCT1 (HEK293 cells overexpressing human OCT1, racemic substrate, two minutes, net uptake) was 1082 pmol × mg Protein^−1 × min^−1; on OCT2 [4] (HEK293 cells overexpressing human OCT2, racemic substrate, two minutes, net uptake), 1127 pmol × mg Protein^−1 × min^−1. In addition, the selectivity ratio at 2 min worked out at 1.16 on OCT1 (Stereoselectivity ClInt); 1.09 on OCT1 (Stereoselectivity Km, OCT1, ratio between enantiomers, given as for (S) or for 2 (second-eluting)); 1.06 at OCT1 (setting [6]); 1 on OCT3; 2.66 on OCT2 [4] (setting [7]); 1.25 at OCT2 [4] (Stereoselectivity Km, given as for (S) or for 2 (second-eluting)). Moreover, the selectivity ratio at 2 min at OCT2 [4] (setting [8]) stood at 2.13. Also, in the data set with OCT2 A270S variant, the “Net uptake by A270S variant in comparison to the wild-type” value was 120%.
